This note sets out measurements from ChEMBL document CHEMBL5120766, “Recent insight into the biological activities and SAR of quinolone derivatives as multifunctional scaffold” (Bioorg Med Chem, 2022).

Values after ≈ are worked out from the molar mass of the structure shown.

The target in one assay is Cytochrome P450 3A4 (Homo sapiens, UniProt P08684). The experiment in a line: Inhibition of CYP3A4 in human liver microsomes using midazolam as substrate. It is filed as ADME, Microsome. For orientation: Microsomes from liver hold many membrane-bound enzymes, among them those of drug oxidation.
Sequence of Cytochrome P450 3A4 (P08684 whole entry): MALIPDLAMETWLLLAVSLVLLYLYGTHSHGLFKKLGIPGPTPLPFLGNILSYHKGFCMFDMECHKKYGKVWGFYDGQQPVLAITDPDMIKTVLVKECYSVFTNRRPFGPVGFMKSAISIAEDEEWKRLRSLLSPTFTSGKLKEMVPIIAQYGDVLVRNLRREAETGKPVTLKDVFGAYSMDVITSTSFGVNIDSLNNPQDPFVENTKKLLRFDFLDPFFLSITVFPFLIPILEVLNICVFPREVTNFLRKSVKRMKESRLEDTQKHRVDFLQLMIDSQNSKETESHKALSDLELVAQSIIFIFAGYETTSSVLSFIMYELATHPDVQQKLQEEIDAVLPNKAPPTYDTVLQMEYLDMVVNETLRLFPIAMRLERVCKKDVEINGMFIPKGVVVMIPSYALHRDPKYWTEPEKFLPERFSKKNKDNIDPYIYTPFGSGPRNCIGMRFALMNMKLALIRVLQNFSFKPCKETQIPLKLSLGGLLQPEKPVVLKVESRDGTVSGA
Assay [1] relates to Escherichia coli. The experiment in a line: Antibacterial activity against Escherichia coli ATCC 35218 incubated for 24 hrs by serial dilution method. It is filed as functional.
The next assay has as its system Klebsiella pneumoniae. The experiment in a line: Antibacterial activity against Klebsiella pneumoniae ATCC 35657 incubated for 24 hrs by serial dilution method. The class given is functional.
In assay [2] the test system is Mycobacterium tuberculosis. The experiment in a line: Antimycobacterial activity against Mycobacterium tuberculosis H37Rv assessed as inhibition of bacterial growth measured after 24 hrs by turbidity based analysis. The class given is functional.
The subject of assay [3] is Escherichia coli. As to the kind of experiment: Antibacterial activity against Escherichia coli ATCC 8739 assessed as zone of inhibition by agar dilution method. The class given is functional. (Agar dilution tests growth on a series of plates holding different concentrations.)
Assay [4] concerns Staphylococcus aureus. As to the kind of experiment: Antibacterial activity against Staphylococcus aureus ATCC 6538 assessed as zone of inhibition by agar dilution method. The class given is functional.
The next assay concerns Clostridium perfringens. The experiment in a line: Antibacterial activity against Clostridium perfringens 22 incubated for 18 hrs by microbroth dilution method. The class given is functional. Background: In broth dilution the organism is exposed to a series of concentrations in liquid medium.
A further assay deals with Bacteroides fragilis. As to the kind of experiment: Antibacterial activity against Bacteroides fragilis PA-2-II incubated for 18 hrs by microbroth dilution method. The class given is functional.
Another assay concerns A549. The experiment in a line: Antiproliferative activity against human A549 cells assessed as cell growth inhibition measured after 72 hrs by MTT assay. As to conditions: A549, 72 h. The class given is functional, cell-based.
Assay [5] deals with Plasmodium falciparum. As to the kind of experiment: Antiplasmodial activity against Plasmodium falciparum 3D7 assessed as cell growth inhibition. It is filed as functional, organism-based.
Assay [6] has as its system Plasmodium falciparum. The experiment in a line: Antiplasmodial activity against chloroquine sensitive Plasmodium falciparum NF54 infected in human red blood cells assessed as reduction in [3H]-hypoxanthine incorporation pretreated for 48 hrs followed by [3H]-hypoxanthine addition measured after 24 hrs by scintillation counting method. The class given is functional, organism-based.

In assay [7] the test system is Plasmodium falciparum. As to the kind of experiment: Antiplasmodial activity against Plasmodium falciparum FCR-3 assessed as cell growth inhibition. The class given is functional, organism-based.
The subject of assay [8] is Pseudomonas aeruginosa. As to the kind of experiment: Antibacterial activity against Pseudomonas aeruginosa NCDC 105 assessed as zone of inhibition at 50 ug/ml by agar well diffusion method. It is filed as functional. As to conditions: read-out: DIZ.
The subject of assay [9] is Pseudomonas aeruginosa. As to the kind of experiment: Antibacterial activity against Pseudomonas aeruginosa NCDC 105 assessed as zone of inhibition at 10 ug/ml by agar well diffusion method. It is filed as functional. As to conditions: read-out: DIZ.
Assay [10] concerns Pseudomonas aeruginosa. As to the kind of experiment: Antibacterial activity against Pseudomonas aeruginosa NCDC 105 assessed as zone of inhibition at 100 ug/ml by agar well diffusion method. The class given is functional. The conditions noted are these: read-out: DIZ.
For assay [11], the system named is Mycobacterium tuberculosis. As to the kind of experiment: Antimycobacterial activity against Mycobacterium tuberculosis H37Rv assessed as inhibition of bacterial growth measured after 7 days by alamar blue dye based microplate analysis. The class given is functional. The conditions noted are these: 168 h, time 7 day.
Assay [12] relates to Escherichia coli. The experiment in a line: Antibacterial activity against Escherichia coli PTCC 1047 assessed as zone of inhibition incubated for 24 hrs by cup-plate agar diffusion method. It is filed as functional.
Assay [13] relates to Bacillus subtilis. As to the kind of experiment: Antibacterial activity against Bacillus subtilis PTCC 1207 assessed as zone of inhibition incubated for 24 hrs by cup-plate agar diffusion method. It is filed as functional.
The test system of assay [14] is Bacillus subtilis. As to the kind of experiment: Antibacterial activity against Bacillus subtilis ATCC 6633 incubated for 18 hrs by agar dilution method. The class given is functional.
Assay [15] has as its system Staphylococcus aureus. The experiment in a line: Antibacterial activity against Staphylococcus aureus ATCC 6538p incubated for 18 hrs by agar dilution method. The class given is functional.
Assay [16] concerns Staphylococcus epidermidis. The experiment in a line: Antibacterial activity against Staphylococcus epidermidis ATCC 12228 incubated for 18 hrs by agar dilution method. The class given is functional.
Assay [17] concerns Human immunodeficiency virus 1. The experiment in a line: Antiviral activity against wild type HIV1 infected in human C8166 cells. The class given is functional, organism-based. The conditions noted are these: Human immunodeficiency virus 1, C8166.
Assay [18] relates to Human immunodeficiency virus 1. The experiment in a line: Antiviral activity against HIV1 A17 mutant infected in human C8166 cells. It is filed as functional, organism-based. As to conditions: Human immunodeficiency virus 1, A17, C8166.
Assay [19] relates to Human immunodeficiency virus 2. As to the kind of experiment: Antiviral activity against HIV2 infected in human MT4 cells by MTT assay. The class given is functional, organism-based. As to conditions: Human immunodeficiency virus 2, MT4.
In assay [20] the test system is Human immunodeficiency virus 1. As to the kind of experiment: Antiviral activity against HIV1 infected in human MT4 cells by MTT assay. The class given is functional, organism-based. The conditions noted are these: Human immunodeficiency virus 1, MT4.

For orientation: Ki means the dissociation constant of the complex between target and ligand, obtained from inhibition or displacement. Read a low Ki as tighter binding. As for `COc1c(N2CC[C@@H](C3(N)CC3)C2)ccc2c(=O)c(C(=O)O)cn([C@@H]3C[C@@H]3F)c12`, the inhibition constant (Ki) on Cytochrome P450 3A4 came to 67.9 µM. The term MIC denotes the lowest concentration that inhibits growth of the organism. As to `O=C(NO)c1cn(C2CC2)c2cc(-n3cc(CN4CCOCC4)nn3)c(F)cc2c1=O`, the MIC in the assay with Escherichia coli [1] and in the assay with Klebsiella pneumoniae was 4 µg/mL (≈ 9.34 µM) each time. Take `CCn1cc(C(=O)O)c(=O)c2cc(F)c(N3CCN(CC(=O)Nc4nnc(-c5ccc(Cl)cc5Cl)s4)CC3)cc21`: the MIC in assay [2] was determined as 8 µg/mL (≈ 13.2 µM). For the molecule `O=C([O-])c1cn(CCn2cc(C(=O)[O-])c(=O)c3cc(F)c(N4CC5CCCNC5C4)c(F)c32)c2c(F)c(N3CC4CCCNC4C3)c(F)cc2c1=O.[Na+].[Na+]` (stereo unspecified), the “diameter of the inhibition zone (DIZ)” value is 22 mm in the assay on Escherichia coli [3] and 15 mm in the assay with Staphylococcus aureus [4]. With `Cc1c(N2C[C@]3(N)CCC[C@]3(F)C2)c(F)cc2c(=O)c(C(=O)O)cn([C@@H]3C[C@@H]3F)c12.Cl.O.O`, the MIC against Clostridium perfringens and with Bacteroides fragilis was at most 0.05 µg/mL in each case. As a reminder, the IC50 is the concentration that gives 50% inhibition. Turning to `N=C(NS(=O)(=O)c1ccccc1C(F)(F)F)N1CCN(c2cc3c(cc2F)c(=O)c(C(=O)O)cn3-c2ccc(F)cc2F)CC1`, in the assay with A549, the half-inhibitory concentration (IC50) amounted to 0.009 µM. Turning to `C[C@H]1[C@@H](OC(=O)c2cn(C3CC3)c3cc(N4CCNCC4)c(F)cc3c2=O)O[C@@H]2O[C@@]3(C)CC[C@H]4[C@H](C)CC[C@@H]1[C@@]24OO3`, the IC50 in the assay with Plasmodium falciparum [5] was determined as 0.00997 µM.

As to `Cn1c(-c2ccc(CCCCCCCCCCN3CCCCC3)cc2)cc(=O)c2ccccc21`, the IC50 in the assay with Plasmodium falciparum [6] was determined as 0.82 µM.

`Cn1cc(C(=O)N/N=C\c2ccccn2)c(=O)c2cc(F)ccc21`: in the assay on Plasmodium falciparum [7], the IC50 was determined as 3.3 µM. Take `Cn1c(-c2ccc(CCCCCCBr)cc2)cc(=O)c2ccccc21`: the concentration for half-maximal inhibition (IC50) in the assay on Plasmodium falciparum [6] was 0.09 µM. Turning to `CCn1cc(C(=O)O)c(=O)c2cc(F)c(N3CCN(CNc4nc5ccc(F)cc5s4)CC3)cc21`, the zone of inhibition at 50 µg/mL in the assay on Pseudomonas aeruginosa [8] turned out to be 3.8 mm. Besides, in the assay with Pseudomonas aeruginosa [9], the zone of inhibition at 10 µg/mL worked out at 3.3 mm. Further, the zone of inhibition at 100 µg/mL with Pseudomonas aeruginosa [10] was 4.8 mm. In the case of `COc1ccc(C(=O)N/N=C(/C)CCN2CCN(c3c(F)cc4c(=O)c(C(=O)O)cn(C5CC5)c4c3OC)CC2)cc1`, the MIC in assay [11] came to 0.5 µM (≈ 0.29 µg/mL). Turning to `CCn1cc(C(=O)O)c(=O)c2cc(F)c(N3CCN(C/C(=N\OC)c4cc5cccc(OC)c5oc4=O)CC3)nc21`, the “diameter of the inhibition zone (DIZ)” value in the assay with Escherichia coli [12] stood at 35 mm; in the assay on Bacillus subtilis [13], 39 mm. As for `O=C(O)c1cn(-c2ccc(F)cc2)c2cc(N3CCN(C/C(=N\O)c4ccccc4)CC3)c(F)cc2c1=O`, the MIC (with Bacillus subtilis [14]; against Staphylococcus aureus [15]; in assay [16]) was below 0.125 µg/mL throughout. Consider `O=C(O)c1cn(C2CC2)c2cc(N3CCN(CNc4nc5ccc([N+](=O)[O-])cc5s4)CC3)c(F)cc2c1=O`, for which the zone of inhibition at 50 µg/mL with Pseudomonas aeruginosa [8] was 5.5 mm. Further, the zone of inhibition at 10 µg/mL with Pseudomonas aeruginosa [9] was determined as 3.5 mm. For the same molecule, in the assay with Pseudomonas aeruginosa [10], the zone of inhibition at 100 µg/mL amounted to 6.3 mm. Turning to `CCn1cc(C(=O)O)c(=O)c2cc(F)c(N3CCN(C/C(=N\OC)c4cc5cccc(OC)c5oc4=O)CC3)cc21`, the “diameter of the inhibition zone (DIZ)” value worked out at 32 mm in the assay with Escherichia coli [12] and 36 mm in the assay on Bacillus subtilis [13].

As usually defined, the EC50 is the concentration needed to bring the measured effect to its halfway point. High values mean a need for much substance, low ones an effect from little substance. In the case of `CC(C)[C@@H](CO)n1cc(C(=O)O)c(=O)c2c(F)c(Cc3cccc(Cl)c3F)ccc21`, the concentration for a half-maximal effect (EC50) in [17] came out at 0.032 µM; in assay [18] it was 0.082 µM.

As to `Cn1cc(C(=O)O)c(=O)c2ccc(N3CCN(c4nc5ccccc5s4)CC3)nc21`, the concentration for a half-maximal effect (EC50) was 0.04 µM in assay [19] and 0.06 µM in [20].
